# Like-named read-outs stand apart in the source and are kept apart here.
# Experiments:
# [1] = biological target: T1, BACE1 activity in SH-SY5YAPP695Wt cells (Homo sapiens, UniProt P56817); assay: SH-SY5YAPP695Wt Whole Cell Assay (Abeta ELISA); assay type: cell-based; settings: 24 hours incubation, conditioned media, n=4
# T1 construct: endogenous in cells; host or cells: SH-SY5Y (ATCC CRL2266) stably expressing human APP695Wt
# Description: (§1) To assess selectivity of BACE1 over BACE2, the test compound is evaluated in FRET assays using specific substrates for BACE1 and BACE2 as described below. For in vitro enzymatic and cellular assays, the test compound is prepared in DMSO to make up a 10 mM stock solution. The stock solution is serially diluted in DMSO to obtain a ten-point dilution curve with final compound concentrations ranging from 10 μM to 0.05 nM in a 96-well round-bottom plate before conducting the in vitro enzymatic and whole cell assays.
# The routine whole cell assay for the measurement of inhibition of BACE1 activity utilizes the human neuroblastoma cell line SH-SY5Y (ATCC Accession No. CRL2266) stably expressing a human APP695Wt cDNA. Cells are routinely used up to passage number 6 and then discarded.
# SH-SY5YAPP695Wt cells are plated in 96 well tissue culture plates at 5.0×10^4 cells/well in 200 μL culture media (50% MEM/EBSS and Ham's F12, 1× each sodium pyruvate, non-essential amino acids and NaHCO3 containing 10% FBS). The following day, media is removed from the cells, fresh media added then incubated at 37° C. for 24 hours in the presence/absence of test compound at the desired concentration range.
# At the end of the incubation, conditioned media are analyzed for evidence of beta-secretase activity by analysis of Abeta peptides 1-40 and 1-42 by specific sandwich ELISAs. […]
# beta-secretase = assay: In vivo inhibition of beta-secretase, cannulated beagle dog model (Abeta 1-x ELISA); settings: male beagle dogs, 1.0 mg/kg p.o.
# Description: (§2) Several animal models, including mouse, guinea pig, dog, and monkey, may be used to screen for inhibition of beta-secretase activity in vivo following compound treatment. Herein, we conduct central pharmacology studies in a cannulated beagle dog model. In this model, a cohort of male beagle dogs are implanted with a cannula in the lumbar spine region and threaded up towards the cervical spine. This model allows multiple CSF collections throughout a single 48-72 hour study period through a subcutaneous lumbar port attached to the spinal catheter. As long as the cannula remains patent, additional CSF pharmacology studies can be conducted within the same cohort of dogs. Blood samples are processed to obtain plasma, and then plasma and CSF samples are aliquoted to allow determination of test compound and Abeta CSF concentrations.
# In this study, six male beagle dogs are dosed p.o. with 1.0 mg/kg Example 1 in a 0.5 M, phosphate buffer (pH=2.0) formulation and blood (0.5, 1, 2, 3, 6, 9, 12, 24, and 48 hours) and CSF (3, 6, 9, 24, and 48 hours) are collected. Plasma and CSF compound concentrations are determined by LC/MS/MS methods. Plasma and CSF are also analyzed for Abeta 1-x. “Abeta 1-x” as used herein refers to the sum of Abeta species that begin with residue 1 and end with a C-terminus greater than residue 28. This detects the majority of Abeta species and is often called “total Abeta”. Total Abeta peptides (Abeta 1-x) levels are measured by a sandwich ELISA, using monoclonal 266 as a capture antibody and biotinylated 3D6 as reporting antibody. (See May, et al., Journal of Neuroscience, 31, 16507-16516 (2011)).
# [2] = Plasma and CSF compound exposure in cannulated beagle dogs (LC/MS/MS); assay type: in vivo; settings: dog, po, male beagle dogs, 1.0 mg/kg p.o.
# Description: as §2
# In this study, six male beagle dogs are dosed p.o. with 1.0 mg/kg Example 1 in a 0.5 M, phosphate buffer (pH=2.0) formulation and blood (0.5, 1, 2, 3, 6, 9, 12, 24, and 48 hours) and CSF (3, 6, 9, 24, and 48 hours) are collected. Plasma and CSF compound concentrations are determined by LC/MS/MS methods. Plasma and CSF are also analyzed for Abeta 1-x. […] Total Abeta peptides (Abeta 1-x) levels are measured by a sandwich ELISA, using monoclonal 266 as a capture antibody and biotinylated 3D6 as reporting antibody. […]
# Human BACE1(1-460):Fc = biological target: T2, Human BACE1(1-460):Fc (Homo sapiens, UniProt P56817); assay: BACE1 FRET Assay; assay type: biochemical; settings: purified recombinant huBACE1:Fc, FRET substrate based on APP; mean ± standard deviation of the mean, n=12
# T2 construct: made in house; host or cells: HEK293 cells, transient transfection; purified from conditioned media by Protein A
# Description: as §1
# (§3) Human BACE1 (accession number: AF190725) and human BACE2 (accession number: AF 204944) are cloned from total brain cDNA by RT-PCR. The nucleotide sequences corresponding to amino acid sequences #1 to 460 are inserted into the cDNA encoding human IgG1 (Fc) polypeptide (Vassar et al., Science, 286, 735-742 (1999)). […]
# (§4) Conditioned media of HEK293 cells transiently transfected with huBACE1:Fc or huBACE2:Fc cDNA are collected. […] The purity of the final product is assessed by electrophoresis in 4-20% Tris-Glycine SDS-PAGE. […]
# Serial dilutions of the test compound are prepared as described above. […] The RFU of the mixture at time 0 is recorded at excitation wavelength 355 nm and emission wavelength 460 nm, after brief mixing on a plate shaker. […] The RFU at the end of incubation is recorded with the same excitation and emission settings used at time 0. […]
# human BACE2 (1-460):Fc = biological target: T3, human BACE2 (1-460):Fc (Homo sapiens, UniProt Q9Y5Z0); assay: BACE2 TMEM27 FRET Assay; assay type: biochemical
# T3 construct: made in house; host or cells: HEK293 cells, transient transfection; purified from conditioned media by Protein A
# T3 sequence (Q9Y5Z0 21-460): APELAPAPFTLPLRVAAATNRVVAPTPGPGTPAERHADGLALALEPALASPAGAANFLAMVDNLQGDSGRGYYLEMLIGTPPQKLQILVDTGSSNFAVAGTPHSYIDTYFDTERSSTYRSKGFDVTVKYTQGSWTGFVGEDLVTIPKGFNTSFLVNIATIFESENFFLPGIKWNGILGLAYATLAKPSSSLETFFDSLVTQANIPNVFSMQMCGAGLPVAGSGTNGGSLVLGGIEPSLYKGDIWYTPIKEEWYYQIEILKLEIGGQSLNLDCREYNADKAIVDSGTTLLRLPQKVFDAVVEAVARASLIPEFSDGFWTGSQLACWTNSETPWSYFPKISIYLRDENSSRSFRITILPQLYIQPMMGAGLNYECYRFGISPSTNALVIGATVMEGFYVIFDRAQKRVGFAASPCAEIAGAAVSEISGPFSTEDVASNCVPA
# Description: as §1, §3, §4
# Serial dilutions of test compound are prepared as described above. […] The RFU of the mixture at time 0 is recorded at excitation wavelength 430 nm and emission wavelength 535 nm. […] The RFU at the end of incubation is recorded with the same excitation and emission settings used at time 0. […]
# T1 sequence (P56817 46-501): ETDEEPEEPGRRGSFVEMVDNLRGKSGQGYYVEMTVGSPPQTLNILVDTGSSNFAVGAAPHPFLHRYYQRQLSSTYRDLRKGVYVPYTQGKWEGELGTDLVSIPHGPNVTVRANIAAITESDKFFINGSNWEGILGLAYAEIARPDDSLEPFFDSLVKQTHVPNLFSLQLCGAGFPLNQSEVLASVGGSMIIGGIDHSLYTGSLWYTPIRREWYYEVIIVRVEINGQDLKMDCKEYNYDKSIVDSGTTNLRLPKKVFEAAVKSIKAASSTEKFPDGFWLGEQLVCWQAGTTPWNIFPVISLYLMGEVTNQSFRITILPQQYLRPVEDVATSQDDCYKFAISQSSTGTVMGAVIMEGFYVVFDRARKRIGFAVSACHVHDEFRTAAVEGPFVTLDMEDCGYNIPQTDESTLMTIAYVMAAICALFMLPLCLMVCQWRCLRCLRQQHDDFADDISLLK
# T2 sequence (P56817 22-460): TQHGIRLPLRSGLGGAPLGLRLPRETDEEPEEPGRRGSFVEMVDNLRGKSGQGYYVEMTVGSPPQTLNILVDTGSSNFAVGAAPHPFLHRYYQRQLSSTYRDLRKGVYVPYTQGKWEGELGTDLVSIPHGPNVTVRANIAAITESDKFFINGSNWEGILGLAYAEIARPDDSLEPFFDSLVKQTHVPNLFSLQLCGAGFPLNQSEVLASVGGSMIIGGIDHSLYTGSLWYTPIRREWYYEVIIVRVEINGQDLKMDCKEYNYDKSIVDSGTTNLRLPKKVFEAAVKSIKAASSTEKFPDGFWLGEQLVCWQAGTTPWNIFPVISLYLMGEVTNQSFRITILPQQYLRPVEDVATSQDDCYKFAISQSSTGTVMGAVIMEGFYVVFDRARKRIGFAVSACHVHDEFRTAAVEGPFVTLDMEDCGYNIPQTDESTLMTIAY
smiles,measurement,setting,value
"CC(F)(F)[C@H]1OC[C@]2(c3cc(NC(=O)c4ccc(C(F)(F)F)cn4)ccc3F)N=C(N)OC[C@H]12 [Example 1, N-[3-[(4aR,5S,7aS)-2-Amino-5-(1,1-difluoroethyl)-4,4a,5,7-tetrahydrofuro[3,4-d][1,3]oxazin-7a-yl]-4-fluoro-phenyl]-5-(trifluoromethyl)pyridine-2-carboxamide]",IC50,[1]; read-out: IC50 for SH-SY5YAPP695Wt A-beta (1-40) ELISA,1.03 nM
same,IC50,[1]; read-out: IC50 for SH-SY5YAPP695Wt A-beta (1-42) ELISA,1.28 nM
same,reduction of CSF Abeta 1-x levels relative to baseline,beta-secretase; 24 hours,approximately 65%
same,reduction in plasma levels of Abeta 1-x at nadir,beta-secretase; 48 hour post-dosing period,up to 80%
same,reduction of CSF Abeta 1-x levels relative to baseline,beta-secretase; 48 hours,~55%
same,Kp,"[2]; CSF / free plasma, free fraction by equilibrium dialysis, read-out: ratio of CSF AUC to free plasma AUC",0.17
same,AUC,"[2]; plasma, read-out: total plasma AUC exposure",7.96 µM·h
same,IC50,Human BACE1(1-460):Fc,11.9 nM
same,IC50,"human BACE2 (1-460):Fc; huBACE2:Fc, TMEM27 LucY FRET substrate, mean ± standard deviation of the mean, n=6",602 nM
same,BACE1 selectivity over BACE2 (BACE2 IC50 / BACE1 IC50),human BACE2 (1-460):Fc; selectivity for BACE1 over BACE2,approximately 50 fold
